These results are taken from patent US20240200050A1, “AMINOACYL TRANSFER RNA SYNTHETASES” (Trustees of Tufts College, priority 2021, published 2024).

Experiment [1] has as its system ncAA-substituted synthetic antibody clones. Description: UV-mediated photocrosslinking of ncAA-substituted synthetic antibody clones on the yeast surface. Particulars: identical sets of crosslinking conditions. The method, then:
(§1) Experiments were undertaken to expand the tools available for genetically encoding crosslinkable ncAAs in proteins produced in yeast. As described in the above examples, a large number of aminoacyl-tRNA synthetase (aaRS) variants were discovered that support translation with a broad set of ncAAs. Here, several of these aaRSs were evaluated alongside previously described variants to evaluate their support of protein translation with the ncAAs O-(2-bromoethyl)tyrosine (Obey), 4-benzoyl-1-phenylalanine (Bpa), or N^6-((2-(3-methyl-3H-diazirin-3-yl)ethoxy)carbonyl)-L-lysine (Photo-Lysine, Phk) (FIG. 12A). Although none of these ncAAs were used in any of the screening efforts described in the above Examples. several variants from the screens were nevertheless identified that supported translation at moderate to high efficiencies with Obey and Phk. […] The potential utility of these spontaneously crosslinkable and photocrosslinkable ncAAs was also investigated. […] The display and binding activities of these peptides were confirmed. […] For the cases of Phk and Bpa, photocrosslinkability on the yeast surface was investigated utilizing ncAA-substituted synthetic antibody clones and alongside AzF-substituted clones known to undergo UV-mediated crosslinking.

For another experiment, the system named is antigen. Nature of the experiment: Antigen binding of yeast-displayed synthetic antibody fragments substituted with ncAAs. The conditions noted are these: ncAA incorporated into yeast-displayed synthetic antibody fragments. The procedure:
as §1

Another experiment deals with streptavidin (Streptomyces avidinii, UniProt P22629). Nature of the experiment: Display and binding of ncAA-substituted anti-streptavidin peptides on the yeast surface. The method, then: as §1
streptavidin, sequence (P22629 25-183, species assumed): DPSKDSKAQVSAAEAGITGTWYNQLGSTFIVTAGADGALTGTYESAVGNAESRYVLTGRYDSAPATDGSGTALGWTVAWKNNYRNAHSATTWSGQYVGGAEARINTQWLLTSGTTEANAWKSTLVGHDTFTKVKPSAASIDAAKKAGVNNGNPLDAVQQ

SMILES strings stand for the structures.

In the case of `[N-]=[N+]=Nc1ccc(C[C@H](N)C(=O)O)cc1` [AzF, p-azido-L-phenylalanine], the “crosslinking on the yeast surface (in words)” value (shortened to “crosslinking”) in experiment [1] is recorded as “clear evidence”.
Turning to `N[C@@H](Cc1ccc(C(=O)c2ccccc2)cc1)C(=O)O` [Bpa, 4-benzoyl-1-phenylalanine], the “antigen binding of ncAA-substituted constructs (in words)” value (from here on “antigen binding”) with antigen was “retained antigen binding”. Besides, the “crosslinking” value in experiment [1] is on record as “clear evidence”.
Take `C#CCOc1ccc(C[C@H](N)C(=O)O)cc1` [OPG, p-propargyloxy-L-phenylalanine]: the “display and binding activities of ncAA-substituted peptides (in words)” value on streptavidin is reported as “confirmed”.
On to `N[C@@H](Cc1ccc(OCCBr)cc1)C(=O)O` [Obey, O-(2-Bromoethyl)-L-tyrosine], for which the “antigen binding” value in the experiment on antigen is recorded as “retained antigen binding”. In addition, the “display and binding activities of ncAA-substituted peptides (in words)” value at streptavidin is “confirmed”.
For `CC1(CCOC(=O)NCCCC[C@H](N)C(=O)O)N=N1` [Phk, N^6-((2-(3-methyl-3H-diazirin-3-yl)ethoxy)carbonyl)-L-lysine], the “antigen binding” value with antigen is listed as “retained antigen binding”. Further, in experiment [1], the “crosslinking” value is given as “did not appear to undergo detectable crosslinking”.
